Measured values: the METLIN SMRT retention time set (Domingo-Almenara et al. 2019)

assay: gradient 5% acetonitrile 3 min, to 50% in 2 min, to 85% in 15 min, held 3 min, 100 µL/min; conditions: column: Zorbax Extend-C18 2.1 x 50 mm; eluents: water / acetonitrile, 0.1% formic acid
Method in brief: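 The system's dead and dwell volumes were 40 μL and 900 μL, with a Zorbax Extend-C18 column (2.1 × 50 mm, 1.8 μm) run at 100 μL/min in water and acetonitrile containing 0.1% formic acid each. Pure standards were analyzed in mixtures of ~100 molecules by HPLC–quadrupole time-of-flight mass spectrometry in positive and negative ionization mode. Retention time was assigned from computationally picked, manually inspected adduct peaks.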

Row | Compound | RP-LC retention time [s]
1 | CC1=C(c2ccc(C)c(C)c2)S(=O)(=O)N=C1N1CCCN(C(=O)C2CCCC2)CC1 | 912
2 | Cc1nc(-c2noc(-c3cccc(F)c3)n2)cn1CC(=O)Nc1ccccc1 | 856
3 | CCOC(=O)c1nn(-c2ccccc2)c(=O)cc1NCc1ccccn1 | 649
4 | CC(C)CN1C(=O)c2cccn2CC1C(=O)NCCN1CCCC1 (stereo not given) | 572
5 | CCCCCNC(=O)c1ccc2c(c1)CCCN2S(C)(=O)=O | 846
6 | Cc1cccc(-c2noc(Cn3cnc4c(cnn4-c4ccc(C)c(Cl)c4)c3=O)n2)c1 | 1280
7 | O=C(CN1CCc2ccccc2C1C(=O)N1CCCC1)Nc1ccc(Cl)cc1 (stereo not given) | 860
8 | Cn1cc(C2=CCN(CC(=O)N3CCN(c4ccc(F)cc4)CC3)CC2)cn1 | 612
9 | CC1CCC(NC(=O)C2CCN(C(=O)c3cc(-c4ccncc4)n[nH]3)CC2)CC1 (stereo not given) | 624
10 | CCc1cccc(NC(=O)Cn2c(=O)c(CCC(=O)NCC(C)C)nc3ccccc32)c1 | 880
11 | CC(C)CC(=O)N1c2nc(-c3ccccc3)nn2C2(CCCCC2)[C@@H]2CCCC[C@@H]21 | 674
12 | COc1ccccc1N1CCN(C(=O)C2CCN(c3c(C)n(C)c(=O)n(C)c3=O)CC2)CC1 | 718
13 | COc1ccc(-c2nc3ccccn3c2Nc2ccc(C)cc2)cc1 | 701
14 | CCc1nnc(NC(=O)CSc2nc3ccccc3[nH]2)s1 | 656
15 | COc1ccc(CNC(=S)Nc2ccc3nc(N4CCN(C)CC4)cc(C)c3c2)c(OC)c1 | 600
16 | CCOc1ccc(-c2nc(-c3cccc(-c4ccnn4CC)c3)no2)cc1 | 1300
17 | Cc1cc(NC(=O)c2cccn2-c2cccnc2)ccc1Br | 881
18 | COc1cccc(CNC(=O)c2ccc3c(c2)N(C)C(=O)c2ccccc2O3)c1 | 852
19 | O=C(O)c1ccccc1-c1ccccc1C(=O)Nc1ccc2c(c1)Cc1ccccc1-2 | 939
20 | CCOc1cccc(-c2noc(-c3nnn4c3COC(c3ccc(C)cc3C)C4)n2)c1 (stereo not given) | 643
21 | CC1CN2C=NC(N3CCN(C(=O)Nc4cc(F)cc(F)c4)CC3)=CC2=N1 (stereo not given) | 664
22 | CCCCn1cc(S(=O)(=O)NCc2cccc(Cl)c2)c2cccnc21 | 1020
23 | CCn1ccc2c(cc(C(=O)Nc3ccc(C)c(Cl)c3)n2C)c1=O | 907

Row | Compound | RP-LC retention time [s]
24 | COC(=O)c1cccc(Nc2c(-c3cccc(Br)c3)nc3cnccn23)c1 | 918
25 | Cc1ccc(Cl)cc1NC(=O)N1CCN(c2ccc(=O)n(-c3ccccc3)n2)CC1 | 838
26 | CC(C)NC(=O)CN1c2ccc(F)cc2-c2ccccc2S1(=O)=O | 831
27 | CCOc1ccc(-c2noc(Cn3ccn4nc(-c5ccc(Cl)cc5)cc4c3=O)n2)cc1OC | 1130
28 | O=C(CCCn1c(=O)c2cccn2c2ccc(F)cc21)N1CCCCCC1 | 934
29 | CNC(=O)NC1CCN(C(=O)c2cccc(F)c2)C1 (stereo not given) | 628
30 | CC1CCCCN1S(=O)(=O)c1ccc2nc(N3CCN(c4ccccn4)CC3)ccc2c1 (stereo not given) | 674
31 | CCCNC(=O)Cn1nc2cc(-c3ccccc3)nc(C)n2c1=O | 766
32 | CCc1ccc(-c2nc(NC(=O)c3cc(C)on3)sc2C)cc1 | 1160
33 | NS(=O)(=O)c1ccc(CCNCc2ccc(-c3cc(Cl)cc(Cl)c3)o2)cc1 | 800
34 | C[C@H]1CN(C(=O)Nc2ccc(F)cc2)C[C@@H]1c1nc(-c2cccnc2)no1 | 760
35 | COc1ccc(NC(=O)N2CCc3cn(C)c4cccc(c34)C2)cc1 | 844
36 | CCN1CCN(c2c(S(=O)(=O)c3ccc(C)c(C)c3)cnc3ccc(OC)cc23)CC1 | 679
37 | COc1ccc(C2C(C(=O)Nc3ccccn3)c3cc(OC)c(OC)cc3C(=O)N2C)cc1OC (stereo not given) | 677
38 | CCN1c2cc(Cl)ccc2C(=O)NC12CCN(C(=O)Nc1ccccc1C)CC2 | 837
39 | O=C(C1=CCN(Cc2cccc(F)c2)CC1)N1CCN(c2ccccc2)CC1 | 642
40 | Cc1ccccc1OCC(=O)Nc1nc(-c2ccccc2Cl)cs1 | 1210
41 | COc1cccc(-n2cc(C(=O)OCc3ccncc3)c3ccccc3c2=O)c1 | 714
42 | COC1(C2=NCCN2)COc2ccccc2O1 (stereo not given) | 581
43 | Cc1cccc(N2CCN(C(=O)Cn3nc(C(=O)N4CCCC4)c4ccccc43)CC2)c1C | 1020
44 | O=C(c1ccc(Cl)cc1)N1CCN(c2nc(CN3CCCCC3)cs2)CC1 | 808
45 | O=C(CCc1nnc2c3cc(-c4ccc(F)cc4)nn3ccn12)NCCc1ccccn1 | 603
